Each structure is given as a SMILES string.

This data set can be described thus: RP, Thermo Scientific Hypersil GOLD, 200 × 2.1 mm, 1.9 µm, 40 °C, 0.4 mL/min, estimated dead time 1.1 min; A: water + 0.2% formic acid; B: acetonitrile; gradient (min/%B) 0/10 0.5/10 22/100 30/100 30.2/10 35/10. Conditions: stereoisomer not certain.
Regarding `O=c1ccc2ccc(O)cc2o1` [7-hydroxycoumarin], the LC retention time is 5.43 min.
Next, `CC1(C(=O)O)CCC2(C)CCC3(C)C(=CC(=O)C4C5(C)CCC(O)C(C)(C)C5CCC43C)C2C1` (stereo not drawn) [18beta-glycyrrhetinic acid]: 16.6 min; `CC(C)C1=CC2=CCC3C(C)(C(=O)O)CCCC3(C)C2CC1` (centres undefined) [abietic acid]: 19.3 min; `CC1CCC2C(C)C3C(CC4C5CC=C6CC(OC7OC(CO)C(OC8OC(C)C(O)C(O)C8O)C(O)C7OC7OC(C)C(O)C(O)C7O)CCC6(C)C5CCC43C)N2C1` (stereo not drawn) [alpha-chaconine]: 7.97 min.
Next, `CC1CCC2C(C)C3C(CC4C5CC=C6CC(OC7OC(CO)C(O)C(OC8OC(CO)C(O)C(O)C8O)C7OC7OC(C)C(O)C(O)C7O)CCC6(C)C5CCC43C)N2C1` (stereo not drawn) [alpha-solanine]: 7.91 min; `CC1CCC2(C(=O)O)CCC3(C)C(=CCC4C5(C)CC(O)C(O)C(C)(CO)C5CCC43C)C2C1C` (centres undefined) [asiatic acid]: 12.7 min.
The same measure for `C=C(C)C1CCC2(C(=O)O)CCC3(C)C(CCC4C5(C)CCC(O)C(C)(C)C5CCC43C)C12` (centres undefined) [betulinic acid]: 18.8 min; for `O=C(C=Cc1ccc(O)c(O)c1)OCCc1ccccc1` [caffeic acid phenylethyl ester]: 12.2 min; for `O=C(C=Cc1ccc(O)c(O)c1)OC1CC(O)(C(=O)O)CC(O)C1O` (centres undefined) [chlorogenic acid]: 3.21 min.
On to `O=C(O)c1cc(O)c(O)c(O)c1` [gallic acid], for which the LC retention time was 1.6 min.
In the case of `COc1ccc(C2CC(=O)c3c(O)cc(OC4OC(CO)C(O)C(O)C4OC4OC(C)C(O)C(O)C4O)cc3O2)cc1O` (centres undefined) [hesperetin 7-O-neohesperidoside], the LC retention time was 6.61 min.
The same measure for `COc1ccc(C2CC(=O)c3c(O)cc(OC4OC(COC5OC(C)C(O)C(O)C5O)C(O)C(O)C4O)cc3O2)cc1O` (centres undefined) [hesperetin 7-rutinoside]: 6.39 min; for `COc1ccc(C2CC(=O)c3c(O)cc(O)cc3O2)cc1O` (centres undefined) [hesperetin]: 9.3 min.
Next, `OCCc1ccc(O)c(O)c1` [hydroxytyrosol]: 2.46 min; `COc1cc(-c2oc3cc(O)cc(O)c3c(=O)c2O)ccc1O` [isorhamnetin]: 9.25 min.
As for `CC1OC(OCC2OC(Oc3c(-c4ccc(O)cc4)oc4cc(O)cc(O)c4c3=O)C(O)C(O)C2O)C(O)C(O)C1O` (centres undefined) [kaempferol 3-rutinoside], the LC retention time is 5.64 min.
`O=c1c(O)c(-c2ccc(O)cc2)oc2cc(O)cc(O)c12` [kaempferol]: the LC retention time was 9.01 min.
Next, `COc1cc(CC2COC(c3ccc(O)c(OC)c3)C2CO)ccc1O` (centres undefined) [lariciresinol]: 7.24 min.
Next, `O=c1cc(-c2ccc(O)c(O)c2)oc2cc(O)cc(O)c12` [luteolin]: 7.75 min; `COc1cc(-c2[o+]c3cc(O)cc(O)c3cc2OC2OC(CO)C(O)C(O)C2O)cc(OC)c1O` (centres undefined) [malvidin 3-glucoside]: 3.86 min.
Next, `CC1OC(OC2C(Oc3cc(O)c4c(c3)OC(c3ccc(O)cc3)CC4=O)OC(CO)C(O)C2O)C(O)C(O)C1O` (centres undefined) [naringenin 7-O-neohesperidoside]: 6.18 min; `O=C1CC(c2ccc(O)cc2)Oc2cc(O)cc(O)c21` (centres undefined) [naringenin]: 8.88 min; `CC=C1C(OC2OC(CO)C(O)C(O)C2O)OC=C(C(=O)OC)C1CC(=O)OCCc1ccc(O)c(O)c1` (centres undefined) [oleuropein]: 7.05 min.
Consider `O=C(O)/C=C/c1ccc(O)cc1` [p-coumaric acid], for which the LC retention time was 5.04 min.
Next, `O=C(C=Cc1ccc(O)cc1)OC1CC(O)(C(=O)O)CC(O)C1O` (centres undefined) [p-coumarlyquinnic acid]: 4.21 min.
The same measure for `O=C(CCc1ccc(O)cc1)c1c(O)cc(O)cc1OC1OC(CO)C(O)C(O)C1O` (centres undefined) [phloridzin]: 6.77 min.
`O=C(O)c1ccc(O)c(O)c1` [protocatechuic acid]: the LC retention time was 2.41 min.
Next, `CC1OC(Oc2c(-c3ccc(O)c(O)c3)oc3cc(O)cc(O)c3c2=O)C(O)C(O)C1O` (centres undefined) [quercetin 3-rhamnoside]: 6.02 min.
Next, `CC1OC(OCC2OC(Oc3c(-c4ccc(O)c(O)c4)oc4cc(O)cc(O)c4c3=O)C(O)C(O)C2O)C(O)C(O)C1O` (centres undefined) [quercetin 3-rutinoside]: 5.07 min.
Next, `O=c1c(O)c(-c2ccc(OC3OC(CO)C(O)C(O)C3O)c(O)c2)oc2cc(O)cc(O)c12` (centres undefined) [quercetin 4'-glucoside]: 6.25 min; `O=c1c(O)c(-c2ccc(O)c(O)c2)oc2cc(O)cc(O)c12` [quercetin]: 7.8 min.
As to `COc1cc(CC(CO)C(CO)Cc2ccc(O)c(OC)c2)ccc1O` (centres undefined) [secoisolariciresinol], the LC retention time is 6.86 min.
The same measure for `CC1CCC2(NC1)OC1CC3C4CCC5CC(OC6OC(CO)C(OC7OC(CO)C(O)C(OC8OCC(O)C(O)C8O)C7OC7OC(CO)C(O)C(O)C7O)C(O)C6O)CCC5(C)C4CCC3(C)C1C2C` (centres undefined) [tomatin]: 7.55 min; for `CC1CCC2(C(=O)O)CCC3(C)C(=CCC4C5(C)CCC(O)C(C)(C)C5CCC43C)C2C1C` (centres undefined) [ursolic acid]: 19.2 min.

These data come from the RepoRT retention time repository.
